Literature values in article PMC11215356 (Haematologica, 2024).

Key:
CLL/SLL = CLL/SLL patients, range over previous Syk inhibitor studies
FL = FL patients
[1] = test system: patients treated with fostamatinib

| diarrhea as a DLT event [1] | diarrhea as one of the most common TRAE [1] | Compound | ORR (CLL/SLL) | mPFS (CLL/SLL) | mPFS (FL) |
| --- | --- | --- | --- | --- | --- |
|  |  | CCS(=O)(=O)N1CCN(c2ccc(Nc3ncc(C(N)=O)c(NC4CC4)n3)cc2)CC1 [cerdulatinib] | 33-61% | 5.6-13.8 months |  |
|  |  | c1cn2cc(-c3ccc4cn[nH]c4c3)nc(Nc3ccc(N4CCOCC4)cc3)c2n1 [entospletinib] | 33-61% | 5.6-13.8 months | 4.6 months |
| 21% | 41% | COc1cc(Nc2ncc(F)c(Nc3ccc4c(n3)N(COP(=O)(O)O)C(=O)C(C)(C)O4)n2)cc(OC)c1OC [fostamatinib] | 33-61% | 5.6-13.8 months | 5.7 months |
